Values quoted from earlier work as cited in patent US20170340738A1, “STABLE ACIDIC INSULIN FORMULATIONS” (MERCK SHARP & DOHME CORP., priority 2012, published 2017).

Settings: administered once daily subcutaneously

Gly(A21), Arg(B31), Arg(B32)-human insulin [insulin glargine]
Basal coverage: 24 h
